In patent EP0411495A2, “Ergoline derivatives of proline and related compounds having dopaminergic activity” (priority 1989, dated 1991):
Where two headings read alike, the source gives them in different places.

Columns and labels:
rat seminal vesicle = assay: Adrenolytic activity, in vitro rat seminal vesicle test
Source text: Most of the compounds of formula (I) have a marked adrenolytic activity in the in vitro rat seminal vesicle test.

reserpinized rat = assay: Antihyperprolactinemic activity in the reserpinized rat; format: in vivo; conditions: for Plasmatic prolactin % reduction: reserpinized rat; for antihyperprolactinemic activity: result in words
Source text: All compounds (I) have a marked antihyperprolactinemic activity in the reserpinized rat.

mouse [1] = assay: Locomotor activity in the mouse; format: in vivo
guinea pig platelet = assay: In vitro guinea pig platelet aggregation induced by ADP; format: cell-based; conditions: guinea pig platelets
Source text: Moreover, compounds (I) have an effective antiag gregating activity on the in vitro guinea pig platelet aggregation induced by ADP.

isolated rat uterus = tested on: isolated rat uterus
Source text: All the compounds of the invention have a marked antiserotonin activity in the in vitro test on isolated rat uterus.

rat = assay: Stereotypy test in the rat; format: in vivo; conditions: for Mean score: stereotypy, rat; for activity on C.N.S.: result in words
[2] = tested on: spontaneously hypertensive rats (SHR); assay: Antihypertensive activity on spontaneously hypertensive rats (SHR); format: in vivo, rat; conditions: for Mean arterial pressure % reduction: SHR; for hypotensive activity: result in words
mouse [3] = assay: Acute toxicity by the oral route in the mouse; format: in vivo
[4] = After 1 hour (dose 0.25 mg/kg os)
[5] = After 2 hours (dose 0.50 mg/kg os)
[6] = antiserotonin activity, in vitro isolated rat uterus

CC[C@@H](CO)NC(=O)[C@@H]1C=C2c3cccc4c3c(cn4C)C[C@H]2N(C)C1 [Methysergid, reference compound] showed an ED₅₀ (rat seminal vesicle) of 2.48 µg/mL.
In the case of CC(C)C[C@H]1C(=O)N2CCC[C@H]2[C@]2(O)O[C@](NC(=O)[C@@H]3C=C4c5cccc6[nH]c(Br)c(c56)C[C@H]4N(C)C3)(C(C)C)C(=O)N12 [α-Bromocryptine, reference compound], the “Plasmatic prolactin % reduction” value (reserpinized rat; [4]) is reported as 78.2%, the “Plasmatic prolactin % reduction” value (reserpinized rat; [5]) is reported as 80.9% and the “% inhibition” value (mouse [1]; dose 10 mg/kg i.p.) is reported as 78.7%. For the same molecule, the “Platelet aggregation % reduction” value (guinea pig platelet; Dose 80 mcg/ml) was 25%, the ED₅₀ (isolated rat uterus; [6]) was 0.470 µg/mL and the Mean score (rat; dose 10 mg/kg i.p.) was 2.25.
CC[C@@H](CO)NC(=O)[C@@H]1C=C2c3cccc4[nH]cc(c34)C[C@H]2N(C)C1 [Methylergometrine, reference compound] was tested, and the “Mean arterial pressure % reduction” value ([2]; dose = 1 mg/kg i.p.) was 15.7% and the “Mean arterial pressure % reduction” value ([2]; dose = 3 mg/kg i.p.) was 29.4%.
In the case of CN1C[C@H](C(=O)N2CCC[C@H]2C(=O)O)C=C2c3cccc4[nH]cc(c34)C[C@H]21 [P 1411], the “% inhibition” value (mouse [1]; dose 20 mg/kg i.p.) is reported as 80.9% and the ED₅₀ (isolated rat uterus; [6]) is reported as 0.370 µg/mL.
In the case of CN1C[C@H](C(=O)N2CC(O)C[C@H]2CO)C=C2c3cccc4c3c(cn4C)C[C@H]21.Cl (stereo partly shown) [P 1417], the ED₅₀ (rat seminal vesicle) is reported as 3.52 µg/mL, the ED₅₀ (isolated rat uterus; [6]) is reported as 0.001 µg/mL and the antiserotonin activity (isolated rat uterus; result in words) is reported as “remarkable antiserotonin activity”.
For CN1CC(C(=O)N2CC(O)CC2CO)CC2c3cccc4[nH]cc(c34)CC21 (stereo not shown) [P 1422], the “Mean arterial pressure % reduction” value ([2]; dose = 1 mg/kg i.p.) was 18.8%, the “Mean arterial pressure % reduction” value ([2]; dose = 3 mg/kg i.p.) was 40.8% and the hypotensive activity [2] was “high hypotensive activity”. For the same molecule, the ED₅₀ (rat seminal vesicle) was 2.89 µg/mL, the “Plasmatic prolactin % reduction” value (reserpinized rat; [4]) was 77.1% and the antihyperprolactinemic activity (reserpinized rat) was “interesting antihyperprolactinemic activity”. The “% inhibition” value (mouse [1]; dose 20 mg/kg i.p.) was 79.8%, the ED₅₀ (isolated rat uterus; [6]) was 0.014 µg/mL and the antiserotonin activity (isolated rat uterus; result in words) was “remarkable antiserotonin activity”.
For CN1C[C@H](C(=O)N2CCC[C@H]2C#N)C=C2c3cccc4c3c(cn4C)C[C@H]21.Cl [P 1420], the acute toxicity (mouse [3]) was “slightly more toxic”, the ED₅₀ (rat seminal vesicle) was 0.50 µg/mL and the “Plasmatic prolactin % reduction” value (reserpinized rat; [4]) was 50.1%. For the same molecule, the antihyperprolactinemic activity (reserpinized rat) was “interesting antihyperprolactinemic activity”, the “% inhibition” value (mouse [1]; dose 5 mg/kg i.p.) was 82.7% and the ED₅₀ (isolated rat uterus; [6]) was 0.003 µg/mL. For the same molecule, the antiserotonin activity (isolated rat uterus; result in words) was “remarkable antiserotonin activity”, the “activity on C.N.S.” value (rat) was “marked activity on C.N.S” and the Mean score (rat; dose 2.5 mg/kg i.p.) was 2.17.
In the case of COC(=O)[C@@H]1C[C@@H](O)CN1C(=O)[C@@H]1C=C2c3cccc4[nH]cc(c34)C[C@H]2N(C)C1.O=C(O)/C=C\C(=O)O [P 1413, N-(D-Lysergyl)-4-hydroxy-L-proline methyl ester maleate], the ED₅₀ (isolated rat uterus) is reported as 0.004 µg/mL and the antiserotonin activity (isolated rat uterus) is reported as “remarkable antiserotonin activity”.
For CN1C[C@H](C(=O)N2C[C@H](O)C[C@H]2CO)C=C2c3cccc4[nH]cc(c34)C[C@H]21 [P 1414, N-(D-Lysergyl)-4-hydroxy-L-prolinol], the “Mean arterial pressure % reduction” value ([2]; dose = 1 mg/kg i.p.) was 17.9%, the “Mean arterial pressure % reduction” value ([2]; dose = 3 mg/kg i.p.) was 31.2% and the hypotensive activity [2] was “high hypotensive activity”. For the same molecule, the ED₅₀ (isolated rat uterus; [6]) was 0.007 µg/mL.
With CC(C)C[C@H]1C(=O)N2CCC[C@H]2[C@]2(O)O[C@](NC(=O)[C@@H]3C[C@@H]4c5cccc6[nH]cc(c56)C[C@H]4N(C)C3)(C(C)C)C(=O)N12 [Dihydro-α-ergocryptine, reference compound] the “Mean arterial pressure % reduction” value ([2]; dose = 1 mg/kg i.p.) was 18.3%, the “Mean arterial pressure % reduction” value ([2]; dose = 3 mg/kg i.p.) was 29.0% and the “Plasmatic prolactin % reduction” value (reserpinized rat; [4]) was 52.4%. For the same molecule, the “Plasmatic prolactin % reduction” value (reserpinized rat; [5]) was 66.1%, the “% inhibition” value (mouse [1]; dose 20 mg/kg i.p.) was 74.3% and the “Platelet aggregation % reduction” value (guinea pig platelet; Dose 20 mcg/ml) was 25%. For the same molecule, the ED₅₀ (isolated rat uterus; [6]) was 0.035 µg/mL.
With CN1C[C@H](C(=O)N2CCC[C@H]2CO)C=C2c3cccc4[nH]cc(c34)C[C@H]21.O=C(O)/C=C\C(=O)O [P 1410] the “Mean arterial pressure % reduction” value ([2]; dose = 1 mg/kg i.p.) was 17.8%, the hypotensive activity [2] was “high hypotensive activity” and the “Plasmatic prolactin % reduction” value (reserpinized rat; [4]) was 65.7%. The antihyperprolactinemic activity (reserpinized rat) was “interesting antihyperprolactinemic activity”, the ED₅₀ (isolated rat uterus; [6]) was 0.059 µg/mL and the antiserotonin activity (isolated rat uterus; result in words) was “remarkable antiserotonin activity”. For the same molecule, the “activity on C.N.S.” value (rat) was “marked activity on C.N.S” and the Mean score (rat; dose 10 mg/kg i.p.) was 2.62.
With CN1C[C@H](C(=O)N2CC(O)C[C@H]2CO)C=C2c3cccc4[nH]c(Br)c(c34)C[C@H]21 (stereo partly shown) [P 1415] the ED₅₀ (rat seminal vesicle) was 0.95 µg/mL, the ED₅₀ (isolated rat uterus; [6]) was 0.015 µg/mL and the antiserotonin activity (isolated rat uterus; result in words) was “remarkable antiserotonin activity”.
With COC(=O)[C@@H]1CCCN1C(=O)[C@@H]1C=C2c3cccc4[nH]cc(c34)C[C@H]2N(C)C1.O=C(O)/C=C\C(=O)O [P 1409, N-(D-Lysergyl)-L-proline methyl ester maleate] the “Mean arterial pressure % reduction” value ([2]; dose = 1 mg/kg i.p.) was 22.1%, the “Mean arterial pressure % reduction” value ([2]; dose = 3 mg/kg i.p.) was 27.5% and the hypotensive activity [2] was “high hypotensive activity”. For the same molecule, the ED₅₀ (rat seminal vesicle) was 1.02 µg/mL, the “% inhibition” value (mouse [1]; dose 2.5 mg/kg i.p.) was 69.5% and the ED₅₀ (isolated rat uterus) was 0.010 µg/mL. For the same molecule, the antiserotonin activity (isolated rat uterus) was “remarkable antiserotonin activity”, the “activity on C.N.S.” value (rat) was “marked activity on C.N.S” and the Mean score (rat; dose 1.25 mg/kg i.p.) was 1.00.
For CN1C[C@H](CN2CCC[C@H]2CO)C=C2c3cccc4[nH]cc(c34)C[C@H]21.Cl.Cl [P 1421], the ED₅₀ (rat seminal vesicle) was 2.82 µg/mL, the “Platelet aggregation % reduction” value (guinea pig platelet; Dose 40 mcg/ml) was 25% and the ED₅₀ (isolated rat uterus; [6]) was 0.011 µg/mL. The antiserotonin activity (isolated rat uterus; result in words) was “remarkable antiserotonin activity”.
With CN1C[C@H](C(=O)N2CCC[C@H]2C#N)C=C2c3cccc4[nH]cc(c34)C[C@H]21.Cl [P 1419] the acute toxicity (mouse [3]) was “slightly more toxic”, the ED₅₀ (rat seminal vesicle) was 0.22 µg/mL and the “Plasmatic prolactin % reduction” value (reserpinized rat; [4]) was 68.4%. The “Plasmatic prolactin % reduction” value (reserpinized rat; [5]) was 84.1%, the antihyperprolactinemic activity (reserpinized rat) was “interesting antihyperprolactinemic activity” and the “% inhibition” value (mouse [1]; dose 0.625 mg/kg i.p.) was 63.2%. For the same molecule, the ED₅₀ (isolated rat uterus; [6]) was 0.073 µg/mL, the “activity on C.N.S.” value (rat) was “marked activity on C.N.S” and the Mean score (rat; dose 0.625 mg/kg i.p.) was 2.50.
With CC(C)[C@@]1(NC(=O)[C@@H]2C[C@@H]3c4cccc5[nH]cc(c45)C[C@H]3N(C)C2)O[C@@]2(O)[C@@H]3CCCN3C(=O)[C@H](Cc3ccccc3)N2C1=O [Dihydroergocristine, reference compound] the “Mean arterial pressure % reduction” value ([2]; dose = 1 mg/kg i.p.) was 18.1%, the “Mean arterial pressure % reduction” value ([2]; dose = 3 mg/kg i.p.) was 32.0% and the “Plasmatic prolactin % reduction” value (reserpinized rat; [4]) was 47.4%. The “% inhibition” value (mouse [1]; dose 10 mg/kg i.p.) was 47.7%, the “Platelet aggregation % reduction” value (guinea pig platelet; Dose 40 mcg/ml) was 25% and the ED₅₀ (isolated rat uterus; [6]) was 0.007 µg/mL. The Mean score (rat; dose 10 mg/kg i.p.) was 2.37.
